From patent US20250049036A1 (priority 2021, published 2025)

Legend:
Pyricularia oryzae = assay: microbe, parasite or virus in culture; type: cell-based; details: 168 h, read-out: control compared to the untreated check
Colletotrichum capsici = Colletotrichum capsici (anthracnose) mycelial radial growth on potato dextrose agar; type: cell-based; details: Colletotrichum truncatum, 168 h, 25° C., seven days, read-out: control compared to the untreated check
Description: The compounds were dissolved in 0.3% dimethyl sulfoxide and then added to potato dextrose agar medium just prior to dispensing it into petri dishes. 5 mL medium, with the compound in the desired concentration, was dispensed into 60 mm sterile petri-plates. After solidification, each plate was seeded with a 5 mm size mycelial disc taken from the periphery of an actively growing virulent culture plate. The plates were incubated in growth chambers at 25° C. temperature and 60% relative humidity for seven days and the radial growth was measured and compared to the one of the untreated control.

Parastagonospora nodorum = Parastagonospora nodorum (PARANO) spore growth inhibition in liquid medium, 96-well microtiter plate, OD 600; type: cell-based; details: spore suspension in PDB liquid medium, 18° C., 5-6 days, OD at 600, read-out: control compared to the untreated check
Description: Potato dextrose (PDB) liquid medium (Difco) containing a PARANO (10^5 spores/ml) spore suspension was prepared. For the inhibition assay, each test compound was solved in dimethyl sulfoxide. 100 μl of the test compound in media-solution was added to a 96-well microtiter plate, consequently, the same volume (100 μl) of spore suspension was added to the well making the final test concentrations and the plate was incubated at 18° C. for 5-6 days. The growth inhibition was evaluated by measuring the OD at 600. Percent inhibition was calculated with the below formula: […]

Phakopsora pachyrhizi = Phakopsora pachyrhizi test on soybean, preventive, greenhouse; type: in vivo; details: preventive spray on soybean, inoculated one day after treatment, read-out: control (efficacy, disease severity) compared to the untreated check
Description: The respective compound was dissolved in 2% dimethyl sulfoxide/acetone and then mixed with water containing emulsifier to the calibrated spray volume of 30 mL. Each spray solution was poured into a spray bottle for further application.
To test the preventive activity of a compound, healthy young soybean plants, raised in the greenhouse, were sprayed with the active compound preparation at the stated application rate inside the spray cabinets using hollow cone nozzles. One day after treatment, the plants were inoculated with a conidial suspension containing 2×10^5 Phakopsora pachyrhizi inoculum. The inoculated plants were then kept in a greenhouse chamber at 22-24° C. temperature and 80-90% relative humidity for disease expression.

Botrytis cinerea = Botrytis cinerea test on tomato, preventive, greenhouse; type: in vivo; details: preventive spray on bean/chili plants (heading: tomato), inoculated one day after treatment, read-out: control (efficacy, disease severity) compared to the untreated check

Compound | inhibition of growth at 300 ppm (Pyricularia oryzae) [%] | inhibition of growth at 300 ppm (Colletotrichum capsici) [%] | inhibition of growth at 300 ppm (Parastagonospora nodorum) [%] | pest or weed control at 500 ppm (Phakopsora pachyrhizi) [%] | pest or weed control at 500 ppm (Botrytis cinerea) [%]
CC(C)CC(C)(Cc1ccccc1F)NC(=O)c1cnc2c(ccn2C)c1 (centres unmarked) [Compound 36, N-(1-(2-fluorophenyl)-2,4-dimethylpentan-2-yl)-1-methyl-1H-pyrrolo[2,3-b]pyridine-5-carboxamide] | ≥ 70 | ≥ 70 | ≥ 70 | – | –
CC(C)(Cc1ccccc1)NC(=O)c1cnc2c(c1)CCCC2 [Compound 45, N-(2-methyl-1-phenylpropan-2-yl)-5,6,7,8-tetrahydroquinoline-3-carboxamide] | – | ≥ 70 | ≥ 70 | ≥ 70 | –
CN(C(=O)c1cnc2c(c1)c(C1CC1)cn2C)C(C)(C)Cc1ccccc1 [Compound 57, 3-cyclopropyl-N,1-dimethyl-N-(2-methyl-1-phenylpropan-2-yl)-1H-pyrrolo[2,3-b] pyridine-5-carboxamide] | – | – | – | ≥ 70 | ≥ 70
Cn1ccc2cc(C(=O)NC(C)(C)Cc3ccc(F)c(F)c3)cnc21 [Compound 23, N-(1-(3,4-difluorophenyl)-2-methylpropan-2-yl)-1-methyl-1H-pyrrolo[2,3-b]pyridine-5-carboxamide] | ≥ 70 | ≥ 70 | ≥ 70 | ≥ 70 | –
Cn1cc(F)c2cc(C(=O)NC(C)(C)Cc3ccc(Cl)cc3)cnc21 [Compound 66, N-(1-(4-chlorophenyl)-2-methylpropan-2-yl)-3-fluoro-1-methyl-1H-pyrrolo[2,3-b]pyridine-5-carboxamide] | – | – | – | ≥ 70 | ≥ 70
CC(Cc1ccccc1)(CC(F)(F)F)NC(=O)c1cnc2ccsc2c1 (centres unmarked) [Compound 25, N-(4,4,4-trifluoro-2-methyl-1-phenylbutan-2-yl)thieno[3,2-b] pyridine-6-carboxamide] | ≥ 70 | ≥ 70 | ≥ 70 | ≥ 70 | –
Cn1ccc2cc(C(=O)NC(C)(C)Cc3ccc(Br)cc3)cnc21 [Compound 61, N-(1-(4-bromophenyl)-2-methylpropan-2-yl)-1-methyl-1H-pyrrolo[2,3-b]pyridine-5-carboxamide] | – | – | – | – | ≥ 70
Cc1nc2c(ccn2C)cc1C(=O)NC(C)(C)C(C)c1ccccc1F (centres unmarked) [Compound 35, N-(3-(2-fluorophenyl)-2-methylbutan-2-yl)-1,6-dimethyl-1H-pyrrolo[2,3-b]pyridine-5-carboxamide] | – | – | – | ≥ 70 | ≥ 70
O=C(NC1(C(F)(F)F)CC1)c1cnc2ccsc2c1 [Compound 108, N-(1-(trifluoromethyl)cyclopropyl)thieno [3,2-b]pyridine-6-carboxamide] | ≥ 70 | – | ≥ 70 | – | –
CCC(O)(CC)C(NC(=O)c1cnc2c(ccn2C)c1)c1ccccc1 (centres unmarked) [Compound 120, N-(2-ethyl-2-hydroxy-1-phenylbutyl)-1-methyl-1H-pyrrolo[2,3-b]pyridine-5-carboxamide] | – | – | – | – | ≥ 70
CC(C)CC(C)(Cc1ccccc1)NC(=O)c1cc2c(nc1Cl)CCC2 (centres unmarked) [Compound 211, 2-chloro-N-(2,4-dimethyl-1-phenylpentan-2-yl)-6,7-dihydro-5H-cyclopenta[b]pyridine-3-carboxamide] | – | ≥ 70 | ≥ 70 | – | –
Cc1nc2[nH]ccc2cc1C(=O)NC1(Cc2ccccc2)CC1 [Compound 97, N-(1-benzylcyclopropyl)-6-methyl-1H-pyrrolo[2,3-b]pyridine-5-carboxamide] | – | – | – | ≥ 70 | ≥ 70
Cn1cc(Cl)c2cc(C(=O)NC(C)(C)COc3ccnc(Cl)c3)cnc21 [Compound 220, 3-chloro-N-(1-((2-chloropyridin-4-yl)oxy)-2-methylpropan-2-yl)-1-methyl-1H-pyrrolo[2,3-b]pyridine-5-carboxamide] | ≥ 70 | – | – | – | –
Cc1nc2c(ccn2C)cc1C(=O)NC(C)(Cc1ccccc1)CC(C)C (centres unmarked) [Compound 34, N-(2,4-dimethyl-1-phenylpentan-2-yl)-1,6-dimethyl-1H-pyrrolo[2,3-b]pyridine-5-carboxamide] | ≥ 70 | ≥ 70 | ≥ 70 | ≥ 70 | –
Cn1ccc2cc(C(=O)NC(C)(C)Cc3ccc(F)cc3)cnc21 [Compound 74, N-(1-(4-fluorophenyl)-2-methylpropan-2-yl)-1-methyl-1H-pyrrolo[2,3-b]pyridine-5-carboxamide] | – | – | – | – | ≥ 70
CC(c1ccccc1F)C(C)(C)NC(=O)c1cnc2c(c1)c(C1CC1)cn2C (centres unmarked) [Compound 65, 3-cyclopropyl-N-(3-(2-fluorophenyl)-2-methylbutan-2-yl)-1-methyl-1H-pyrrolo[2,3-b]pyridine-5-carboxamide] | ≥ 70 | – | – | ≥ 70 | –
CN(C(=O)c1cnc2c(c1)c(Cl)cn2C)C(C)(C)Cc1ccccc1 [Compound 56, 3-chloro-N,1-dimethyl-N-(2-methyl-1-phenylpropan-2-yl)-1H-pyrrolo[2,3-b] pyridine-5-carboxamide] | ≥ 70 | – | ≥ 70 | ≥ 70 | –
Cn1cc(Br)c2cc(C(=O)NC(C)(C)COC(=O)c3ccccc3C(F)(F)F)cnc21 [Compound 180, 2-(3-bromo-1-methyl-1H-pyrrolo[2,3-b]pyridine-5-carboxamido)-2-methylpropyl 2-(trifluoromethyl)benzoate] | ≥ 70 | – | – | – | –
Cc1ccc(F)cc1C(O)C(C)(C)NC(=O)c1cnc2ccsc2c1 (centres unmarked) [Compound 133, N-(1-(5-fluoro-2-methylphenyl)-1-hydroxy-2-methylpropan-2-yl)thieno[3,2-b] pyridine-6-carboxamide] | ≥ 70 | – | – | ≥ 70 | –
Cn1ccc2cc(C(=O)NC3Cc4ccccc4C3)cnc21 [Compound 76, N-(2,3-dihydro-1H-inden-2-yl)-1-methyl-1H-pyrrolo[2,3-b] pyridine-5-carboxamide] | – | – | – | ≥ 70 | ≥ 70
C=C(C)CC(C)(COc1ccccc1F)NC(=O)c1cnc2c(c1)c(Br)cn2C (centres unmarked) [Compound 176, 3-bromo-N-(1-(2-fluorophenoxy)-2,4-dimethylpent-4-en-2-yl)-1-methyl-1H-pyrrolo[2,3-b]pyridine-5-carboxamide] | ≥ 70 | – | ≥ 70 | – | –
Cn1ccc2cc(C(=O)NC(C)(C)C(O)Cc3ccccc3)cnc21 (centres unmarked) [Compound 116, N-(3-hydroxy-2-methyl-4-phenylbutan-2-yl)-1-methyl-1H-pyrrolo[2,3-b]pyridine-5-carboxamide] | – | ≥ 70 | – | – | –
Cn1ccc2cc(C(=O)NC(C)(C)Cc3ccc(Cl)c(Cl)c3)cnc21 [Compound 24, N-(1-(3,4-dichlorophenyl)-2-methylpropan-2-yl)-1-methyl-1H-pyrrolo[2,3-b]pyridine-5-carboxamide] | ≥ 70 | – | – | ≥ 70 | –
Cc1nc2[nH]ccc2cc1C(=O)NC(C)(Cc1ccccc1)CC(C)C (centres unmarked) [Compound 96, N-(2,4-dimethyl-1-phenylpentan-2-yl)-6-methyl-1H-pyrrolo[2,3-b]pyridine-5-carboxamide] | – | – | – | ≥ 70 | ≥ 70
Cn1cc(Br)c2cc(C(=O)NC(C)(C)Cc3ccccc3F)cnc21 [Compound 58, 3-bromo-N-(1-(2-fluorophenyl)-2-methylpropan-2-yl)-1-methyl-1H-pyrrolo[2,3-b]pyridine-5-carboxamide] | ≥ 70 | – | – | ≥ 70 | –
CC(C)CC(C)(Cc1ccccc1)NC(=O)c1cnc2ccsc2c1 (centres unmarked) [Compound 29, N-(2,4-dimethyl-1-phenylpentan-2-yl)thieno[3,2-b] pyridine-6-carboxamide] | ≥ 70 | ≥ 70 | – | ≥ 70 | –
CSc1ccc(C(NC(=O)c2cnc3c(ccn3C)c2)C(C)C)cc1 (centres unmarked) [Compound 90] | – | ≥ 70 | ≥ 70 | – | –
C[C@H](NC(=O)c1cnc2c(ccn2C)c1)C(O)(c1cc(Cl)cc(Cl)c1)c1cc(Cl)cc(Cl)c1 [Compound 141] | ≥ 70 | – | – | ≥ 70 | –
C=C(C)CC(C)(Cc1ccc(F)cc1)NC(=O)c1cnc2c(ccn2C)c1 (centres unmarked) [Compound 181, N-(1-(4-fluorophenyl)-2,4-dimethylpent-4-en-2-yl)-1-methyl-1H-pyrrolo[2,3-b]pyridine-5-carboxamide] | – | ≥ 70 | ≥ 70 | – | –
